{"source": "PubChem BioAssay (NCI)", "experiment_in_all_cases": "DTP human tumour cell line panel, 48 h", "key": {"[1]": {"system": "M14 melanoma"}, "[2]": {"system": "HS 578T breast"}, "[3]": {"system": "OVCAR-8 ovarian"}, "[4]": {"system": "ACHN renal"}, "[5]": {"system": "SF-539 CNS"}, "[6]": {"system": "SK-MEL-5 melanoma"}, "[7]": {"system": "HOP-62 NSCLC"}, "[8]": {"system": "UO-31 renal"}, "[9]": {"system": "HCT-15 colon"}, "[10]": {"system": "MDA-MB-435"}}, "note": "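Cultured in 96-well plates, cells were exposed to test compound for 48 hours across five concentrations. TGI denotes the concentration required for complete inhibition of growth.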"}
{"smiles": "C/C=C/C1OC(O)(C(C)C(O)[C@H](C)C2OC(=O)/C(OC)=C/C(C)=C/[C@@H](C)[C@@H](O)[C@@H](C)C(O)C(C)C/C(C)=C/C=C/C2OC)C[C@@H](OC2CC(O)C(OC(N)=O)C(C)O2)C1C", "note": "(stereo not given in full)", "values": [{"measurement": "TGI", "setting": "[1]", "result": "< 0.01", "unit": "µM"}, {"measurement": "TGI", "setting": "[2]", "result": 27.1, "unit": "µM"}, {"measurement": "TGI", "setting": "[3]", "result": 15.7, "unit": "µM"}, {"measurement": "TGI", "setting": "[4]", "result": 12.1, "unit": "µM"}, {"measurement": "TGI", "setting": "[5]", "result": "< 0.01", "unit": "µM"}, {"measurement": "TGI", "setting": "[6]", "result": "< 0.01", "unit": "µM"}, {"measurement": "TGI", "setting": "[7]", "result": "< 0.01", "unit": "µM"}, {"measurement": "TGI", "setting": "[8]", "result": 13.8, "unit": "µM"}, {"measurement": "TGI", "setting": "[9]", "result": 13.3, "unit": "µM"}, {"measurement": "TGI", "setting": "[10]", "result": 2.58, "unit": "µM"}]}
{"smiles": "C=C1C(=O)O[C@@H]2C[C@]3(C)CC[C@]4(C)[C@H](CC[C@@H]5[C@@]6(C)CCC(=O)C(C)(C)[C@@H]6CC[C@]54C)[C@H]3[C@H]12", "values": [{"measurement": "TGI", "setting": "[1]", "result": 31.3, "unit": "µM"}, {"measurement": "TGI", "setting": "[2]", "result": "> 78", "unit": "µM"}, {"measurement": "TGI", "setting": "[3]", "result": 38.7, "unit": "µM"}, {"measurement": "TGI", "setting": "[4]", "result": 24.2, "unit": "µM"}, {"measurement": "TGI", "setting": "[5]", "result": 38.2, "unit": "µM"}, {"measurement": "TGI", "setting": "[6]", "result": 25.1, "unit": "µM"}, {"measurement": "TGI", "setting": "[7]", "result": 49.2, "unit": "µM"}, {"measurement": "TGI", "setting": "[8]", "result": 28.3, "unit": "µM"}, {"measurement": "TGI", "setting": "[9]", "result": 28.1, "unit": "µM"}, {"measurement": "TGI", "setting": "[10]", "result": 25.4, "unit": "µM"}]}
{"smiles": "C[N+]1(CCCl)CC[N+](C)(CCCl)CC1", "note": "(stereo not given)", "values": [{"measurement": "TGI", "setting": "[1]", "result": "> 100", "unit": "µM"}, {"measurement": "TGI", "setting": "[2]", "result": "> 100", "unit": "µM"}, {"measurement": "TGI", "setting": "[3]", "result": "> 100", "unit": "µM"}, {"measurement": "TGI", "setting": "[4]", "result": "> 100", "unit": "µM"}, {"measurement": "TGI", "setting": "[5]", "result": "> 100", "unit": "µM"}, {"measurement": "TGI", "setting": "[6]", "result": "> 100", "unit": "µM"}, {"measurement": "TGI", "setting": "[7]", "result": "> 100", "unit": "µM"}, {"measurement": "TGI", "setting": "[8]", "result": "> 100", "unit": "µM"}, {"measurement": "TGI", "setting": "[9]", "result": "> 100", "unit": "µM"}, {"measurement": "TGI", "setting": "[10]", "result": "> 100", "unit": "µM"}]}
{"smiles": "Cc1c2c(OCCN3CCCCC3)nn(C)c(=O)c2c(C)n1-c1ccccc1", "values": [{"measurement": "TGI", "setting": "[1]", "result": 33.4, "unit": "µM"}, {"measurement": "TGI", "setting": "[2]", "result": "> 100", "unit": "µM"}, {"measurement": "TGI", "setting": "[3]", "result": "> 100", "unit": "µM"}, {"measurement": "TGI", "setting": "[4]", "result": "> 100", "unit": "µM"}, {"measurement": "TGI", "setting": "[5]", "result": 74.9, "unit": "µM"}, {"measurement": "TGI", "setting": "[6]", "result": 32.1, "unit": "µM"}, {"measurement": "TGI", "setting": "[7]", "result": "> 100", "unit": "µM"}, {"measurement": "TGI", "setting": "[8]", "result": 29.1, "unit": "µM"}, {"measurement": "TGI", "setting": "[9]", "result": "> 100", "unit": "µM"}, {"measurement": "TGI", "setting": "[10]", "result": "> 100", "unit": "µM"}]}
{"smiles": "N#Cc1c(-c2ccccc2)[nH]c(=O)n(C2OC(CO)C(O)C(O)C2O)c1=O", "note": "(stereo not given)", "values": [{"measurement": "TGI", "setting": "[1]", "result": "> 100", "unit": "µM"}, {"measurement": "TGI", "setting": "[2]", "result": "> 100", "unit": "µM"}, {"measurement": "TGI", "setting": "[3]", "result": "> 100", "unit": "µM"}, {"measurement": "TGI", "setting": "[4]", "result": "> 100", "unit": "µM"}, {"measurement": "TGI", "setting": "[5]", "result": "> 100", "unit": "µM"}, {"measurement": "TGI", "setting": "[6]", "result": "> 100", "unit": "µM"}, {"measurement": "TGI", "setting": "[7]", "result": "> 100", "unit": "µM"}, {"measurement": "TGI", "setting": "[8]", "result": "> 100", "unit": "µM"}, {"measurement": "TGI", "setting": "[9]", "result": "> 100", "unit": "µM"}, {"measurement": "TGI", "setting": "[10]", "result": "> 100", "unit": "µM"}]}
{"smiles": "CCCCON1C[C@H](OC(C)=O)C(OC(C)=O)[C@H](OC(C)=O)C1", "note": "(stereo not given in full)", "values": [{"measurement": "TGI", "setting": "[1]", "result": "> 100", "unit": "µM"}, {"measurement": "TGI", "setting": "[2]", "result": "> 100", "unit": "µM"}, {"measurement": "TGI", "setting": "[3]", "result": "> 100", "unit": "µM"}, {"measurement": "TGI", "setting": "[4]", "result": "> 100", "unit": "µM"}, {"measurement": "TGI", "setting": "[5]", "result": "> 100", "unit": "µM"}, {"measurement": "TGI", "setting": "[6]", "result": "> 100", "unit": "µM"}, {"measurement": "TGI", "setting": "[7]", "result": "> 100", "unit": "µM"}, {"measurement": "TGI", "setting": "[8]", "result": "> 100", "unit": "µM"}, {"measurement": "TGI", "setting": "[9]", "result": "> 100", "unit": "µM"}, {"measurement": "TGI", "setting": "[10]", "result": "> 100", "unit": "µM"}]}
